Legend:
foxtail, giant = test: Test C preemergence; format: in vivo, Setaria faberii; conditions: for Plant response rating (scale of 0 to 100 where 0 is no effect and 100 is complete control): Foxtail, Giant, preemergence; for Foxtail, Giant plant response rating (0 to 100): Preemergence, visual rating after 13 to 15 d
Description: (§1) Seeds of plant species selected from blackgrass (Alopecurus myosuroides), ryegrass, Italian (Italian ryegrass, Lolium multiflorum), wheat (winter wheat, Triticum aestivum), galium (catchweed bedstraw, Galium aparine), corn (Zea mays), crabgrass, large (large crabgrass, Digitaria sanguinalis), foxtail, giant, (giant foxtail, Setaria faberii), johnsongrass (Sorghum halepense), lambsquarters (Chenopodium album), morningglory (Ipomoea coccinea), nutsedge, yellow (yellow nutsedge, Cyperus esculentus), pigweed (Amaranthus retroflexus), ragweed (common ragweed, Ambrosia elatior), soybean (Glycine max), barnyardgrass (Echinochloa crus-galli), oilseed rape (Brassica napus), waterhemp (common waterhemp, Amaranthus rudis), and velvetleaf (Abutilon theophrasti) were planted into a blend of loam soil and sand and treated preemergence with test chemicals formulated in a non-phytotoxic solvent mixture which included a surfactant. At the same time, plants selected from these crop and weed species and also chickweed (common chickweed, Stellaria media), oat, wild (wild oat, Avena fatua), and kochia (Kochia scoparia), were planted in pots containing Sunshine Redi-Earth® planting medium comprising spaghnum peat moss, vermiculite, starter nutrients and dolomitic limestone and treated with postemergence applications of test chemicals formulated in the same manner. Plants ranged in height from 2 to 18 cm (1- to 4-leaf stage) for postemergence treatments. […] A dash (-) response means no test result.

blackgrass = test: Test A postemergence; format: in vivo, Alopecurus myosuroides; conditions: 0 to 100 scale (0 no effect, 100 complete control), approx. 10 d
How it was run: (§2)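 Ratings reflect visual injury after ~10 d in greenhouse, 0 = no effect, 100 = complete control. Postemergence treatment was applied to one- to two-leaf seedlings; preemergence treatment was a directed soil spray at planting.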

lambsquarters = test: Test D preemergence; format: in vivo, Chenopodium album; conditions: for Plant response rating (0 to 100), Lambsquarters: 16 g ai/ha, 0 is no effect, 100 is complete control; for Plant response rating: Lambsquarters: scale 0 to 100
Description: (§3) Seeds of plant species selected from bluegrass (annual bluegrass, Poa annua), blackgrass (Alopecurus myosuroides), canarygrass (Phalaris minor), chickweed (common chickweed, Stellaria media), galium (catchweed bedstraw, Galium aparine), bromegrass, down (downy bromegrass, Bromus tectorum), Russian thistle (Salsola kali), field poppy (Papaver rhoeas), field violet (Viola arvensis), foxtail, green (green foxtail, Setaria viridis), deadnettle (henbit deadnettle, Lamium amplexicaule), ryegrass, Ital. (Italian ryegrass, Lolium multiflorum), kochia (Kochia scoparia), lambsquarters (Chenopodium album), oilseed rape (Brassica napus), pigweed (Amaranthus retroflexus), chamomile (scentless chamomile, Matricaria inodora), speedwell (bird's-eye speedwell, Veronica persica), barley, spring (spring barley, Hordeum vulgare), wheat, spring (spring wheat, Triticum aestivum), buckwheat, wild (wild buckwheat, Polygonum convolvulus), wild mustard (Sinapis arvensis), oat, wild (wild oat, Avena fatua), radish, wild (wild radish, Raphanus raphanistrum), […]), barley, winter (winter barley, Hordeum vulgare), and wheat, winter (winter wheat, Triticum aestivum) were planted into a silt loam soil and treated preemergence with test chemicals formulated in a non-phytotoxic solvent mixture which included a surfactant. At the same time, these species were planted in pots containing Sunshine Redi-Earth® planting medium comprising spaghnum peat moss, vermiculite, starter nutrients and dolomitic limestone and treated with postemergence applications of the test chemicals formulated in the same manner. Plants ranged in height from 2 to 18 cm (1- to 4-leaf stage). Treated plants and controls were maintained in a controlled growth environment for 14 to 21 d after which time all species were compared to controls and visually evaluated. […] A dash (-) response means no test result.

kochia = test: Test D postemergence; format: in vivo, Kochia scoparia; conditions: scale 0 to 100
Description: as §3

pigweed = test: Test C preemergence; format: in vivo, Amaranthus retroflexus; conditions: for Plant response rating (scale of 0 to 100 where 0 is no effect and 100 is complete control): Pigweed, preemergence; for Pigweed plant response rating (0 to 100): Preemergence, visual rating after 13 to 15 d
Description: as §1

ragweed = test: Test A postemergence; format: in vivo, Ambrosia elatior; conditions: 0 to 100 scale (0 no effect, 100 complete control), approx. 10 d
How it was run: as §2

buckwheat, wild = test: Test D preemergence; format: in vivo, Polygonum convolvulus; conditions: for Plant response rating (0 to 100), Buckwheat, Wild: 16 g ai/ha, 0 is no effect, 100 is complete control; for Plant response rating: Buckwheat, Wild: scale 0 to 100
Description: as §3

oilseed rape = test: Test D preemergence; format: in vivo, Brassica napus; conditions: for Plant response rating (0 to 100), Oilseed Rape: 16 g ai/ha, 0 is no effect, 100 is complete control; for Plant response rating: Oilseed Rape: scale 0 to 100
Description: as §3

bluegrass = test: Test D preemergence; format: in vivo, Poa annua; conditions: for Plant response rating (0 to 100), Bluegrass: 16 g ai/ha, 0 is no effect, 100 is complete control; for Plant response rating: Bluegrass: scale 0 to 100
Description: as §3

SMILES	Plant response rating (scale of 0 to 100 where 0 is no effect and 100 is complete control) (foxtail, giant; 125 g ai/ha)	Plant response rating (scale of 0 to 100 where 0 is no effect and 100 is complete control) (foxtail, giant; 250 g ai/ha)	Foxtail, Giant plant response rating (0 to 100) (foxtail, giant; 31 g ai/ha)	Foxtail, Giant plant response rating (0 to 100) (foxtail, giant; 62 g ai/ha)	Plant response rating, Blackgrass (blackgrass; 125 g ai/ha)	Plant response rating (0 to 100), Lambsquarters (lambsquarters)	Plant response rating: Lambsquarters (lambsquarters; 62 g ai/ha)	Plant response rating: Lambsquarters (lambsquarters; 125 g ai/ha)	Plant response rating: Kochia (kochia; 16 g ai/ha)	Plant response rating: Kochia (kochia; 31 g ai/ha)	Plant response rating: Kochia (kochia; 62 g ai/ha)	Plant response rating: Kochia (kochia; 125 g ai/ha)	Plant response rating (scale of 0 to 100 where 0 is no effect and 100 is complete control) (pigweed; 125 g ai/ha)	Plant response rating (scale of 0 to 100 where 0 is no effect and 100 is complete control) (pigweed; 250 g ai/ha)	Pigweed plant response rating (0 to 100) (pigweed; 31 g ai/ha)	Pigweed plant response rating (0 to 100) (pigweed; 62 g ai/ha)	Plant response rating, Ragweed (ragweed; 125 g ai/ha)	Plant response rating (0 to 100), Buckwheat, Wild (buckwheat, wild)	Plant response rating: Buckwheat, Wild (buckwheat, wild; 31 g ai/ha)	Plant response rating: Buckwheat, Wild (buckwheat, wild; 62 g ai/ha)	other results
FC(F)(F)COc1nc(-c2ccc(Cl)cc2)nn1Cc1ccnc(C(F)(F)F)c1 [Compound 31]	98	100	90	95	50	75	85	90	80	85	90	95	100	100	98	100	70	65	75	75	Plant response rating, Blackgrass (blackgrass; 500 g ai/ha): 80; Plant response rating, Ragweed (ragweed; 500 g ai/ha): 80; Plant response rating: Buckwheat, Wild (buckwheat, wild; 125 g ai/ha): 75; Plant response rating (0 to 100), Oilseed Rape (oilseed rape): 10; Plant response rating: Oilseed Rape (oilseed rape; 62 g ai/ha): 35; Plant response rating: Oilseed Rape (oilseed rape; 125 g ai/ha): 35; Plant response rating (0 to 100), Bluegrass (bluegrass): 55; Plant response rating: Bluegrass (bluegrass; 31 g ai/ha): 65; Plant response rating: Bluegrass (bluegrass; 62 g ai/ha): 95; Plant response rating: Bluegrass (bluegrass; 125 g ai/ha): 100
CCOc1nc(-c2ccc(C(F)(F)F)cc2)nn1Cc1ccnc(C(F)(F)F)c1 [Compound 35, 4-[[5-ethoxy-3-[4-(trifluoromethyl)phenyl]-1H-1,2,4-triazole-1-yl]methyl]-2-(trifluoromethyl)pyridine]	100	100	98	100	50	85	95	100	90	90	90	90	100	100	98	100	60	65	70	70	Plant response rating, Blackgrass (blackgrass; 31 g ai/ha): 30; Plant response rating, Ragweed (ragweed; 31 g ai/ha): 20; Plant response rating: Buckwheat, Wild (buckwheat, wild; 125 g ai/ha): 95; Plant response rating (0 to 100), Oilseed Rape (oilseed rape): 25; Plant response rating: Oilseed Rape (oilseed rape; 62 g ai/ha): 40; Plant response rating: Oilseed Rape (oilseed rape; 125 g ai/ha): 100; Plant response rating (0 to 100), Bluegrass (bluegrass): 70; Plant response rating: Bluegrass (bluegrass; 31 g ai/ha): 80; Plant response rating: Bluegrass (bluegrass; 62 g ai/ha): 95; Plant response rating: Bluegrass (bluegrass; 125 g ai/ha): 100

Reference: patent US10681909B2, “Herbicidal triazoles” (FMC Corporation, priority 2014, dated 2020)
